Test results taken from patent US20040204463A1, “N-aryl-2-oxazolidinone-5-carboxamides and their derivatives” (priority 2003, published 2004).
In brackets after ≈: the same amount, converted by molar mass. Structures can show the parent of a compound that is named as a salt. Where two headings read alike, the source gives them in different places.

Key:
SAUR 9213 = assay: In vitro MIC by standard agar dilution method, SAUR 9213; type: cell-based, S. aureus; conditions: Staphylococcus aureus, read-out: SAUR 9213 MIC (Minimum Inhibitory Concentration)
Text: (§1) The oxazolidinone antibacterial agents of this invention have useful activity against a variety of organisms. The in vitro activity of compounds of this invention can be assessed by standard testing procedures such as the determination of minimum inhibitory concentration (MIC) by agar dilution as described in “Approved Standard. Methods for Dilution Antimicrobial Susceptibility Tests for Bacteria That Grow Aerobically”, 3rd. ed., published 1993 by the National Committee for Clinical Laboratory Standards, Villanova, Pa., USA.
(§2) The in vitro MICs of test compounds were determined by a standard agar dilution method. A stock drug solution of each analog was prepared in the preferred solvent, usually DMSO: H2O (1:3). Serial 2-fold dilutions of each sample are made using 1.0 ml aliquots of sterile distilled water. To each 1.0 ml aliquot of drug was added 9 ml of molten Mueller Hinton agar medium. The drug-supplemented agar was mixed, poured into 15×100 mm petri dishes, and allowed to solidify and dry prior to inoculation.
(§3) Vials of each of the test organisms are maintained frozen in the vapor phase of a liquid nitrogen freezer. Test cultures are grown overnight at 35° C. on the medium appropriate for the organism. Colonies are harvested with a sterile swab, and cell suspensions are prepared in Trypticase Soy broth (TSB) to equal the turbidity of a 0.5 McFarland standard. A 1:20 dilution of each suspension was made in TSB. The plates containing the drug supplemented agar are inoculated with a 0.001 ml drop of the cell suspension using a Steers replicator, yielding approximately 10^4 to 10^5 cells per spot. The plates are incubated overnight at 35° C.
(§4) Following incubation the Minimum Inhibitory Concentration (MIC μg/ml), the lowest concentration of drug that inhibits visible growth of the organism, was read and recorded.

SPNE 9912 = assay: In vitro MIC by standard agar dilution method, SPNE 9912; type: cell-based; conditions: read-out: SPNE 9912 MIC (Minimum Inhibitory Concentration)
Text: as §1, §2, §3, §4

HINF 30063 = assay: In vitro MIC by standard agar dilution method, HINF 30063; type: cell-based, H. influenzae; conditions: Haemophilus influenzae, read-out: HINF 30063 MIC (Minimum Inhibitory Concentration)
Text: as §1, §2, §3, §4

[1] = agar dilution, Mueller Hinton agar, incubated overnight at 35° C., lowest concentration that inhibits visible growth

Row | Compound | MIC (SAUR 9213) | MIC (SPNE 9912) | MIC (HINF 30063) | MIC (SAUR 9213; [1]) | MIC (SPNE 9912; [1]) | MIC (HINF 30063; [1])
1 | C#CCCCC(=O)N1CCN(c2ccc(N3C[C@H](CNC(C)=O)OC3=O)cc2F)CC1 [Compound 4, N-({(5S)-3-[3-Fluoro-4-(4-hex-5-ynoylpiperazin-1-yl)phenyl]-2-oxo-1,3-oxazolidin-5-yl}methyl)acetamide] | 4 µg/mL (≈ 9.29 µM) | 1 µg/mL (≈ 2.32 µM) | 64 µg/mL (≈ 149 µM) |  |  | 
2 | CC(=O)NC[C@H]1CN(c2ccc(N3CCN(C(=O)CCCC#Cc4cccc(CN)c4)CC3)c(F)c2)C(=O)O1 [Compound 6, N-({(5S)-3-[4-(4-{6-[3-(aminomethyl)phenyl]hex-5-ynoyl}piperazin-1-yl)-3-fluorophen-yl]-2-oxo-1,3-oxazolidin-5-yl}methyl)acetamide] |  |  |  | 2 µg/mL (≈ 3.73 µM) | 1 µg/mL (≈ 1.87 µM) | 16 µg/mL (≈ 29.9 µM)
3 | CC(=O)NC[C@H]1CN(c2ccc(N3CCN(C(=O)CCCC#Cc4ccc(O)cc4)CC3)c(F)c2)C(=O)O1 [Compound 7, N-{[(5S)-3-(3-Fluoro-4-{4-[6-(4-hydroxyphenyl)hex-5-ynoyl]piperazin-1-yl}phenyl)-2-oxo-1,3-oxazolidin-5-yl]methyl}acetamide] |  |  |  | 4 µg/mL (≈ 7.65 µM) | 1 µg/mL (≈ 1.91 µM) | > 64 µg/mL
4 | C#CCCC(=O)N1CCN(c2ccc(N3C[C@H](CNC(C)=O)OC3=O)cc2F)CC1 [Compound 8, N-[((5S)-3-{3-fluoro-4-[4-(4-pentynoyl)-1-piperazinyl]phenyl}-2-oxo-1,3-oxazolidin-5-yl)methyl]acetamide] |  |  |  | 4 µg/mL (≈ 9.6 µM) | < 0.5 µg/mL | > 32 µg/mL
5 | CC(=O)NC[C@H]1CN(c2ccc(N3CCN(CC#Cc4ccccc4)CC3)c(F)c2)C(=O)O1 [Compound 9, N-[((5S)-3-{3-fluoro-4-[4-(3-phenylprop-2-ynyl)piperazin-1-yl]phenyl}-2-oxo-1,3-oxazolidin-5-yl)methyl]acetamide] |  |  |  | 4 µg/mL (≈ 8.88 µM) | 2 µg/mL (≈ 4.44 µM) | 16 µg/mL (≈ 35.5 µM)
6 | CC(=O)NC[C@H]1CN(c2cc(F)c(N3CCN(C(=O)CCCC#Cc4ccc(CN)cc4)CC3)c(F)c2F)C(=O)O1 [Compound 10, N-({(5S)-3-[4-(4-{6-[4-(aminomethyl)phenyl]hex-5-ynoyl}piperazin-1-yl)-2,3,5-trifluorophenyl]-2-oxo-1,3-oxazolidin-5-yl}methyl)acetamide] |  |  |  | 4 µg/mL (≈ 7 µM) | 2 µg/mL (≈ 3.5 µM) | 32 µg/mL (≈ 56 µM)
7 | CC(=O)NC[C@H]1CN(c2cc(F)c(N3CCN(C(=O)CCCC#Cc4cccc(CN)c4)CC3)c(F)c2F)C(=O)O1 [Compound 11, N-({(5S)-3-[4-(4-{6-[3-(aminomethyl)phenyl]hex-5-ynoyl}piperazin-1-yl)-2,3,5-trifluorophenyl]-2-oxo-1,3-oxazolidin-5-yl}methyl)acetamide] |  |  |  | 4 µg/mL (≈ 7 µM) | 2 µg/mL (≈ 3.5 µM) | 16 µg/mL (≈ 28 µM)
8 | CC(=O)NC[C@H]1CN(c2ccc(N3CCN(C(=O)CCCC#Cc4ccc(/C(N)=N/O)cc4)CC3)c(F)c2)C(=O)O1.Cl [Compound 12, N-[((5S)-3-{4-[4-(6-{4-[(Z)-amino(hydroxyimino)methyl]-phenyl}hex-5-ynoyl)piperazin-1-yl]-3-fluorophenyl}-2-oxo-1,3-oxazolidin-5-yl)methyl]-acetamide hydrochloride] |  |  |  | 16 µg/mL | 2 µg/mL | > 64 µg/mL
9 | CC(=O)NC[C@H]1CN(c2ccc(N3CCN(C(=O)CCC#Cc4ccc(C[C@H](N)C(=O)O)cc4)CC3)c(F)c2)C(=O)O1 [Compound 13, 4-{5-[4-(4-{(5S)-5-[(acetylamino)methyl]-2-oxo-1,3-oxazolidin-3-yl}-2-fluorophenyl)piperazin-1-yl]-5-oxopent-1-ynyl}-L-phenylalanine] | > 64 µg/mL | 64 µg/mL (≈ 110 µM) | > 64 µg/mL |  |  | 
10 | CC(=O)NC[C@H]1CN(c2ccc(N3CCN(C(=O)CCCC#Cc4cccc(C#N)c4)CC3)c(F)c2)C(=O)O1 [Compound 14, N-{[(5S)-3-(4-{4-[6-(3-cyanophenyl)hex-5-ynoyl]piperazin-1-yl}-3-fluorophenyl)-2-oxo-1,3-oxazolidin-5-yl]methyl}acetamide] |  |  |  | 8 µg/mL (≈ 15 µM) | 2 µg/mL (≈ 3.76 µM) | > 64 µg/mL
11 | CC(=O)NC[C@H]1CN(c2ccc(N3CCN(C(=O)CCCC#Cc4ccc(/C(C)=N/O)cc4)CC3)c(F)c2)C(=O)O1 [Compound 15, N-[((5S)-3-{3-fluoro-4-[4-(6-{4-[(1E)-N-hydroxyethan-imidoyl]-phenyl}hex-5-ynoyl)piperazin-1-yl]phenyl}-2-oxo-1,3-oxazolidin-5-yl)methyl]-acetamide, HCl salt] |  |  |  | > 16 µg/mL | 2 µg/mL | > 16 µg/mL
12 | CCC(=O)NC[C@H]1CN(c2ccc(C3(C)CN(C(=O)CCCC#Cc4cccc(CN)c4)C3)cc2)C(=O)O1 [Compound 16, N-({(5S)-3-[4-(1-{6-[3-(aminomethyl)phenyl]hex-5-ynoyl}-3-methylazetidin-3-yl)phenyl]-2-oxo-1,3-oxazolidin-5-yl}methyl)propan-amide] |  |  |  | 16 µg/mL (≈ 31 µM) | 2 µg/mL (≈ 3.87 µM) | 16 µg/mL (≈ 31 µM)
13 | CC(=O)NC[C@H]1CN(c2ccc(N3CCN(C(=O)CCCC#Cc4ccc(C(C)=O)cc4)CC3)c(F)c2)C(=O)O1 [Compound 17, N-{[(5S)-3-(4-{4-[6-(4-acetylphenyl)hex-5-ynoyl]piperazin-1-yl}-3-fluorophenyl)-2-oxo-1,3-oxazolidin-5-yl]methyl}acetamide] |  |  |  | > 64 µg/mL | 2 µg/mL (≈ 3.65 µM) | > 64 µg/mL
14 | CC(=O)NC[C@H]1CN(c2ccc(N3CCN(C(=O)CCCC#Cc4ccc(Cn5ccnc5)cc4)CC3)c(F)c2)C(=O)O1 [Compound 18, N-({(5S)-3-[3-fluoro-4-(4-{6-[4-(1H-imidazol-1-ylmethyl)phenyl]hex-5-ynoyl}piperazin-1-yl)phenyl]-2-oxo-1,3-oxazolidin-5-yl}methyl)acetamide] |  |  |  | 16 µg/mL (≈ 27.3 µM) | 2 µg/mL (≈ 3.41 µM) | > 64 µg/mL
15 | CNCc1ccc(C#CCCCC(=O)N2CCN(c3ccc(N4C[C@H](CNC(C)=O)OC4=O)cc3F)CC2)cc1 [Compound 19, N-[((5S)-3-{3-fluoro-4-[4-(6-{4-[(methylamino)methyl]phenyl}hex-5-ynoyl)piperazin-1-yl]phenyl}-2-oxo-1,3-oxazolidin-5-yl)methyl]acetamide] |  |  |  | 4 µg/mL (≈ 7.28 µM) | 0.25 µg/mL (≈ 0.455 µM) | 32 µg/mL (≈ 58.2 µM)
16 | CC(=O)NC[C@H]1CN(c2ccc(N3CCN(C(=O)CCC#Cc4ccc(N)cc4)CC3)c(F)c2)C(=O)O1 [Compound 20, N-{[(5S)-3-(4-{4-[5-(4-aminophenyl)pent-4-ynoyl]piperazin-1-yl}-3-fluorophenyl)-2-oxo-1,3-oxazolidin-5-yl]methyl}acetamide] |  |  |  | 4 µg/mL (≈ 7.88 µM) | 2 µg/mL (≈ 3.94 µM) | 64 µg/mL (≈ 126 µM)
17 | COC(=O)[C@@H](N)Cc1ccc(C#CCCC(=O)N2CCN(c3ccc(N4C[C@H](CNC(C)=O)OC4=O)cc3F)CC2)cc1 [Compound 21, methyl 4-{5-[4-(4-{(5S)-5-[(acetylamino)methyl]-2-oxo-1,3-oxazolidin-3-yl}-2-fluorophenyl)piperazin-1-yl]-5-oxopent-1-ynyl}-L-phenylalaninate] |  |  |  | 32 µg/mL (≈ 53.9 µM) | 4 µg/mL (≈ 6.74 µM) | > 64 µg/mL
18 | CC(=O)NC[C@H]1CN(c2ccc(N3CCN(C(=O)CCC#Cc4c[nH]c(=O)[nH]c4=O)CC3)c(F)c2)C(=O)O1 [Compound 22, N-{[(5S)-3-(4-{4-[5-(2,4-dioxo-1,2,3,4-tetrahydropyrimidin-5-yl)pent-4-ynoyl]piperazin-1-yl}-3-fluorophenyl)-2-oxo-1,3-oxazolidin-5-yl]methyl}acetamide] |  |  |  | 32 µg/mL (≈ 60.8 µM) | 4 µg/mL (≈ 7.6 µM) | 32 µg/mL (≈ 60.8 µM)
19 | CC(=O)NC[C@H]1CN(c2ccc(N3CCN(C(=O)CCCCC#Cc4ccc(CN)cc4)CC3)c(F)c2)C(=O)O1 [Compound 23, N-({(5S)-3-[4-(4-{7-[4-(aminomethyl)phenyl]hept-6-ynoyl}piperazin-1-yl)-3-fluorophenyl]-2-oxo-1,3-oxazolidin-5-yl}methyl)acetamide] |  |  |  | 4 µg/mL (≈ 7.28 µM) | 0.25 µg/mL (≈ 0.455 µM) | 32 µg/mL (≈ 58.2 µM)
20 | CC(=O)NC[C@H]1CN(c2ccc(N3CCN(C(=O)CCCCC#Cc4ccc(O)cc4)CC3)c(F)c2)C(=O)O1 [Compound 24, N-{[(5S)-3-(3-fluoro-4-{4-[7-(4-hydroxyphenyl)hept-6-ynoyl]piperazin-1-yl}phenyl)-2-oxo-1,3-oxazolidin-5-yl]methyl}acetamide] |  |  |  | 8 µg/mL (≈ 14.9 µM) | 2 µg/mL (≈ 3.73 µM) | > 64 µg/mL
21 | CC(=O)NC[C@H]1CN(c2ccc(N3CCN(C(=O)CCCCC#Cc4cccc(O)c4)CC3)c(F)c2)C(=O)O1 [Compound 25, N-{[(5S)-3-(3-fluoro-4-{4-[7-(3-hydroxyphenyl)hept-6-ynoyl]piperazin-1-yl}phenyl)-2-oxo-1,3-oxazolidin-5-yl]methyl}acetamide] |  |  |  | 8 µg/mL (≈ 14.9 µM) | 2 µg/mL (≈ 3.73 µM) | > 64 µg/mL
